This is an account of results in patent US7674810B2, “1,1-dioxo-1H-1Λ6-benzo[d]isothiazol-3-yl)-4-hydroxy-1,5-dihydro-pyrrol-2-one inhibitors of HCV polymerase” (Roche Palo Alto LLC, priority 2006, dated 2010).

Broadly, the IC50 is the concentration at which inhibition is half-maximal. Broadly, the melting point is the temperature of the solid-liquid transition.

Data set [1] relates to Renilla luciferase HCV replicon cells (2209-23). Description: Renilla luciferase Assay (HCV replicon). In kind it is cell-based, HCV; human hepatoma Huh7 cells. To be noted: 72 h; replicon cell line 2209-23, three days incubation; read-out: R. luciferase Activity IC50. A general note: Replicon systems follow genome replication, usually without infectious particles.
For the next data set, the target named is T1, HCV NS5B570n-BK (Hepatitis C virus genotype 1b, UniProt P26663).
T1 construct: histidine tag (N); made in house; host or cells: E. coli strain M15
Description: HCV NS5B RNA Polymerase Activity. To be noted: poly A:oligo U16, tritiated UTP, 2 h at 30° C. The data set is classed as biochemical, HCV BK strain. On the procedure:
The enzymatic activity of HCV NS5B570n-BK is measured as incorporation of radiolabeled nucleotide monophosphates into acid insoluble RNA products. Unincorporated radiolabel substrate is removed by filtration and scintillant is added to the washed and dried filter plate containing radiolabeled RNA product. The light emitted by the scintillant is proportional to the amount of RNA product generated by NS5B570n-BK at the endpoint of the reaction.
The N-terminally histidine tagged HCV polymerase, derived from HCV BK strain, genotype 1b (NS5B570n-BK) contains a 21 amino acid deletion at the C-terminus relative to the full-length HCV polymerase and is purified from E. coli strain M15. The construct containing the coding sequence of HCV BK strain amino acid residues 2421-2999 (GenBank accession number M58335) downstream of a Taq promoter expression cassette was inserted into plasmid constructs. The plasmid constructs are transformed in E. coli and colonies are inoculated and grown overnight in 10 L of Terrific broth (Tartoff and Hobbs) supplemented with 100 μg/mL ampicillin at 37° C. Protein expression is induced by addition of 1 mM isopropyl-β-D -thiogalactopyranoside (IPTG), when optical densities reaches between 1.5 and 3.5 OD600 and the culture is then incubated for 16- to 18 h at 22° C. NS5B570n -BK is purified to homogeneity using a three step protocol including subsequent column chromatography on Ni-NTA, SP-Sepharose HP and Superdex 75 resins.
Each 50 μl enzymatic reaction contains 8:4 μg/mL poly A:oligo U16 (template:primer), 200 nM NS5B570n-BK enzyme, 2.1 μCi of tritiated UTP (Perkin Elmer catalog no. TRK -412; specific activity: 30 to 60 Ci/mmol; stock solution concentration from 7.5×10^−5 M to 20.6×10^−6 M), 1 μM ATP, CTP, and GTP, 40 mM Tris-HCl pH 8.0, 2 to 40 mM NaCl, 4 mM DTT (dithiothreitol), 4 mM MgCl2, and 5 μl of compound serial diluted in DMSO. Reaction mixtures are assembled in MADVN0B 96-well filter plates (Millipore Co.) and incubated for 2 h at 30° C. Reactions are stopped by addition of 10% (v/v) trichloroacetic acid and incubated for 40 min at 4° C. Reactions are filtered, washed with 6 reaction volumes of 10% (v/v) trichloroacetic acetic acid, 2 reaction volumes of 70% (v/v) ethanol, air dried, and 25 μl of scintillant (Microscint 20, Perkin-Elmer) is added to each reaction well.
The amount of light emitted from the scintillant is converted to counts per minute (CPM) on a Topcount® plate reader (Perkin-Elmer, Energy Range: Low, Efficiency Mode: Normal, Count Time: 1 min, Background Subtract: none, Cross talk reduction: Off).
Data is analyzed with GraphPad® Prism® and/or Microsoft® Excel®. The reaction in the absence of enzyme is used to determine the background signal, which is subtracted from the enzymatic reactions. Positive control reactions are performed in the absence of compound, from which the background corrected activity is set as 100% polymerase activity. All data is expressed as a percentage of the positive control. The compound concentration at which the enzyme-catalyzed rate of RNA synthesis is reduced by 50% (IC50) is calculated by fitting equation (i) to
[formula] the data, where “Y” corresponds to the relative enzyme activity (in %), “% Min” is the residual relative enzymatic activity at saturating compound concentration, “% Max” is the maximal relative enzymatic activity compared to positive control, X corresponds to the compound concentration, and “S” is the Hill coefficient (or slope). […]

A further data set concerns HCV. To be noted: cited from earlier work.

T1 sequence (P26663 2421-2999): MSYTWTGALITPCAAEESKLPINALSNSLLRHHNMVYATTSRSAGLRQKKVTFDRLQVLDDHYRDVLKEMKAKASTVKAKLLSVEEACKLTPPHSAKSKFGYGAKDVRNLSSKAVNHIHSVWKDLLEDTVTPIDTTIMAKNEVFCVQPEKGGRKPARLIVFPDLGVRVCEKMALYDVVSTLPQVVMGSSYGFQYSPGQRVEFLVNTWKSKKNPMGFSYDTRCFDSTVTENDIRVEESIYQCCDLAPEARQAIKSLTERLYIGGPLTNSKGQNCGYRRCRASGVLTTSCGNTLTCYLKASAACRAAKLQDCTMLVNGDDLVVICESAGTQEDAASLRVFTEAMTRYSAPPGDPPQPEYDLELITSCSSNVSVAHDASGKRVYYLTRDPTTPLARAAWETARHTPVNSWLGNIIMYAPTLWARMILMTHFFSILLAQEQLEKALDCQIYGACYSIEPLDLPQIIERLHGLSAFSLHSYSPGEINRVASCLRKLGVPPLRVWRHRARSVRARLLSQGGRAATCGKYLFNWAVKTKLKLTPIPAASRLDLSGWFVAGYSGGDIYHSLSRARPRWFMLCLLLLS

For the compound `CC(C)(C)C1C(O)=C(C2=NS(=O)(=O)c3c(O)cccc32)C(=O)N1Cc1ccc(F)cc1` (stereo not drawn) [II-6, 5-tert-Butyl-1-(4-fluoro-benzyl)-4-hydroxy-3-(7-hydroxy-1,1-dioxo-1H-1λ^6-benzo[d]isothiazol-3-yl)-1,5-dihydro-pyrrol-2-one], the melting point is above 250 °C. The half-maximal inhibitory concentration (IC50) in data set [1] was determined as 3260 nM. The IC50 against HCV NS5B570n-BK came out at 52 nM.
For `CC(C)(C)[C@H]1C(O)=C(C2=NS(=O)(=O)c3c(OCS(C)(=O)=O)cccc32)C(=O)N1Cc1ccc(F)cc1` [II-81, (S)-5-tert-Butyl-1-(4-fluoro-benzyl)-4-hydroxy-3-(7-methanesulfonylmethoxy-1,1-dioxo-1H-1λ^6-benzo[d]isothiazol-3-yl)-1,5-dihydro-pyrrol-2-one], the melting point lay within 143 to 151 °C. Moreover, the IC50 in data set [1] worked out at 235 nM.
Regarding `NC(=O)c1ncn([C@@H]2O[C@H](CO)[C@@H](O)[C@H]2O)n1` [ribavirin, 1-((2R,3R,4S,5R)-3,4-dihydroxy-5-hydroxymethyl-tetrahydro-furan-2-yl)-1H-[1,2,4]triazole-3-carboxylic acid amide], in the data set on HCV (monotherapy / sole treatment), the “effect on serum levels of HCV-RNA” value is on record as “does not lower serum levels of HCV-RNA”. Moreover, the “patients in whom serum amino transferase levels are reduced to normal” value in the data set on HCV (monotherapy) is 40%.
Consider `CN(Cc1cccc2c1S(=O)(=O)N=C2C1=C(O)C(C(C)(C)C)N(Cc2ccc(F)cc2)C1=O)S(C)(=O)=O` (stereo not drawn) [II-35, N-{3-[5-tert-Butyl-1-(4-fluoro-benzyl)-4-hydroxy-2-oxo-2,5-dihydro-1H-pyrrol-3-yl]-1,1-dioxo-1H-1λ^6-benzo[d]isothiazol-7-ylmethyl}-N-methyl-methanesulfonamide], for which the melting point fell in the range of 115 to 125 °C. Also, in data set [1], the IC50 is 108 nM. Moreover, 154 nM corresponded to half-maximal inhibition at HCV NS5B570n-BK (IC50).
`Cc1cc(CN2C(=O)C(C3=NS(=O)(=O)c4ccccc43)=C(O)[C@@H]2C(C)(C)C)ccc1F` [II-15, (S)-5-tert-Butyl-3-(1,1-dioxo-1H-1λ^6-benzo[d]isothiazol-3-yl)-1-(4-fluoro-3-methyl-benzyl)-4-hydroxy-1,5-dihydro-pyrrol-2-one]: the melting point is 105 to 111 °C. Also, in data set [1], the IC50 was 125 nM. Also, at HCV NS5B570n-BK, the IC50 was 138 nM.
Consider `CC(C)(C)[C@H]1C(O)=C(C2=NS(=O)(=O)c3ccccc32)C(=O)N1Cc1ccc(F)c(Cl)c1` [II-31, (S)-5-tert-Butyl-1-(3-chloro-4-fluoro-benzyl)-3-(1,1-dioxo-1H-1λ^6-benzo[d]isothiazol-3-yl)-4-hydroxy-1,5-dihydro-pyrrol-2-one], for which the melting point was in the range of 81 to 96 °C. Further, in data set [1], the IC50 turned out to be 288 nM. Moreover, it took 208 nM to reach half-maximal inhibition against HCV NS5B570n-BK (IC50).
For the compound `CC(C)(C)[C@H]1C(O)=C(C2=NS(=O)(=O)c3c(OCS(N)(=O)=O)cccc32)C(=O)N1Cc1ccc(F)cc1` [II-64, {3-[(S)-5-tert-Butyl-1-(4-fluoro-benzyl)-4-hydroxy-2-oxo-2,5-dihydro-1H-pyrrol-3-yl]-1,1-dioxo-1H-1λ^6-benzo[d]isothiazol-7-yloxy}-methanesulfonamide], in data set [1], the IC50 was 228 nM.
`CC(C)(C)[C@H]1C(O)=C(C2=NS(=O)(=O)c3c(CNS(C)(=O)=O)cccc32)C(=O)N1Cc1ccc(F)cc1` [II-23, N-{3-[(S)-5-tert-Butyl-1-(4-fluoro-benzyl)-4-hydroxy-2-oxo-2,5-dihydro-1H-pyrrol-3-yl]-1,1-dioxo-1H-1λ^6-benzo[d]isothiazol-7-ylmethyl}-methanesulfonamide] registered a melting point of 105 to 128 °C. The IC50 in data set [1] worked out at 56 nM. Besides, the IC50 on HCV NS5B570n-BK stood at 76 nM.
`CC(C)(C)[C@H]1C(O)=C(C2=NS(=O)(=O)c3c(CNS(=O)(=O)N4CCNCC4)cccc32)C(=O)N1Cc1ccc(F)cc1.O=C(O)C(F)(F)F` [II-91, Piperazine-1-sulfonic acid {3-[(S)-5-tert-butyl-1-(4-fluoro-benzyl)-4-hydroxy-2-oxo-2,5-dihydro-1H-pyrrol-3-yl]-1,1-dioxo-1H-1λ^6-benzo[d]isothiazol-7-ylmethyl}-amide; compound with trifluoro-acetic acid] registered a melting point of 95 to 115 °C. In data set [1], the IC50 was 143 nM.
For the compound `Cc1cc(CN2C(=O)C(C3=NS(=O)(=O)c4c(CN(C)S(C)(=O)=O)cccc43)=C(O)[C@@H]2C(C)(C)C)ccc1F` [II-77, N-{3-[(S)-5-tert-Butyl-1-(4-fluoro-3-methyl-benzyl)-4-hydroxy-2-oxo-2,5-dihydro-1H-pyrrol-3-yl]-1,1-dioxo-1H-1λ^6-benzo[d]isothiazol-7-ylmethyl}-N-methyl-methanesulfonamide], the IC50 in data set [1] turned out to be 129 nM.
On to `Cc1cc(CN2C(=O)C(C3=NS(=O)(=O)c4c(CNS(C)(=O)=O)cccc43)=C(O)C2C(C)(C)C)ccc1F` (stereo not drawn) [II-38, N-{3-[5-tert-Butyl-1-(4-fluoro-3-methyl-benzyl)-4-hydroxy-2-oxo-2,5-dihydro-1H-pyrrol-3-yl]-1,1-dioxo-1H-1λ^6-benzo[d]isothiazol-7-ylmethyl}-methanesulfonamide], for which the IC50 in data set [1] is 35 nM.
